The IC50 is the concentration needed to halve the response being measured.

Where a name gives a salt, the structure may show the parent alone.

The test addresses T1, FLT3 (Homo sapiens, UniProt P36888).
T1 construct: expressed in transfected cells; host or cells: HEK293T
T1 sequence (P36888 27-993): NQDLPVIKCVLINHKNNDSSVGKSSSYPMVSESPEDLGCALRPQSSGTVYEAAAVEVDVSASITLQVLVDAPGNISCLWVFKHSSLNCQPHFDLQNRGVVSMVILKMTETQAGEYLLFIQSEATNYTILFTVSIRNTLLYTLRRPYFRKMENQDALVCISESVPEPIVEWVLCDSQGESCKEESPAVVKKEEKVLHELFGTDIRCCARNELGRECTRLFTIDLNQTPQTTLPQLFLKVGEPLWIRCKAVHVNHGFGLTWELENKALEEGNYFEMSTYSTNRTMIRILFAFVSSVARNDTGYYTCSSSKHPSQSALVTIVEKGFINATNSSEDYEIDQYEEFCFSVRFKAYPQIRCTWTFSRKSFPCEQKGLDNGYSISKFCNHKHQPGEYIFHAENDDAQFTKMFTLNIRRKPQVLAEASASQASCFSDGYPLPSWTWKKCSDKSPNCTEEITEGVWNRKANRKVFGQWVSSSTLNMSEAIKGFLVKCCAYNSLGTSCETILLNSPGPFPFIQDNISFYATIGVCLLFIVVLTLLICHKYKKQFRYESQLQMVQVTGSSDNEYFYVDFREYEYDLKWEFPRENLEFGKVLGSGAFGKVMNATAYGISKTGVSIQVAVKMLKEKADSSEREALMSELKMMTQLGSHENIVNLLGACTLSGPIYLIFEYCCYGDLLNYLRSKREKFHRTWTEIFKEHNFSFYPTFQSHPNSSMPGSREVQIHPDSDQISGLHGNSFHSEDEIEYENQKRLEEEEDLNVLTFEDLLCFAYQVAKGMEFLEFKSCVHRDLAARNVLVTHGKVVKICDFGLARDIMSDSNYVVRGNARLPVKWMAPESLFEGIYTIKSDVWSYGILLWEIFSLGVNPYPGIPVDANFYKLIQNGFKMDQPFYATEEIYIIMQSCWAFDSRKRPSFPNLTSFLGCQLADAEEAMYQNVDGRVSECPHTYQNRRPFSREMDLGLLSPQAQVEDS
As to the kind of experiment: HTRF binding assay of FL to FLT3 (TR-FRET, SNAP-FLT3 transfected HEK293T cells). To be noted: HEK293T cells transfected with SNAP-FLT3, labelled with SNAP-Lumi4-Tb; compounds 1 h at room temperature, then FL-d2 (0.5 nM), read after 20 h; 12 dilutions in triplicates, performed twice; read-out: Inhibition of FLT3 binding IC50, binding. The procedure:
The binding of FL to FLT3 was measured by a Homologous Time-Resolved Fluorescence (HTRF) assay (Degorce et al., Current Chemical Genomics, 2009, 3, 22-32), which involves resonance energy transfer between a donor, Lumi4-Tb-donor-derivatized benzylguanine substrate (SNAP-Lumi4-Tb, excitation: 337 nm, emission: 630 nm, Cisbio, France), transfected in HEK cells, and an acceptor, red fluorescent FL (FL-d2, excitation: 620 nm, emission: 660 nm, Cisbio, France). When FL-d2 binds to the SNAP-Lumi4-Tb-tagged FLT3 receptor, the proximity of both fluorophores allows the time-resolved Förster resonance energy transfer (TR-FRET) signal to occur and the binding is measured as the ratio between the fluorescent emissions at 660 to 620 nm.
The detailed method is described in Rivat et al. (Nature Communications, 2018, 9 :1042). Briefly, HEK293T cells were transfected with a pCDNA3.1 SNAP-FLT3 plasmid by using Lipofectamine (Invitrogen), and were than labelled with SNAP-Lumi4-Tb. Plates containing attached transfected HEK293T cells were incubated with compounds of formula (I) for 1 h at room temperature. A series of 12 dilutions in triplicates was used for each compound and the experiment was performed twice. Then FL-d2 (0.5 nM) was added and the TR-FRET signal was read after 20 h incubation at room temperature with a HTRF-compatible reader (Envision, Perkin Elmer) allowing a donor excitation at 337 nm and a signal collection both at 615 nm and 665 nm (20 flashes, delay 50 µs, integration time 400 µs). Then HTRF ratio, obtained by dividing the acceptor signal (665 nm) by the donor signal (615 nm), was calculated at each concentration of test compounds. Non-specific binding was measured in the presence 50 µM of BDT001 (Rivat et al., ibid.). Concentration giving 50 % inhibition (IC50) were calculated by non-linear regression analysis for a one-site model, with variable slope (Prism®, Graphpad software, USA).
For orientation: Time-resolved FRET reads energy transfer from a long-lived donor to a nearby acceptor.
With `CN(C)CCOc1ccc(C(=O)Nc2cccc3ccncc23)cc1C#N` [(36), 3-cyano-4-(2-(dimethylamino)ethoxy)-N-(isoquinolin-8-yl)benzamide], the IC50 was found to be 2500 nM. For `CN1CCN(c2ccc(C(=O)Nc3ccc(F)c4nccnc34)cc2)CC1` [(37), N-(8-fluoroquinoxalin-5-yl)-4-(4-methylpiperazin-1-yl)benzamide], the IC50 was found to be 700 nM. For `CN1CCN(c2ccc(C(=O)Nc3cccc4ccncc34)cc2)CC1` [(38), N-(isoquinolin-8-yl)-4-(4-methylpiperazin-1-yl)benzamide] the value was 600 nM; for `CN1CCN(c2ccc(C(=O)Nc3cccc4cnccc34)cc2)CC1` [(39), N-(isoquinolin-5-yl)-4-(4-methylpiperazin-1-yl)benzamide], 800 nM; for `CN1CCN(c2ccc(C(=O)Nc3cccc4ncccc34)cc2)CC1` [(40), 4-(4-methylpiperazin-1-yl)-N-(quinolin-5-yl)benzamide], 1700 nM. For `CN1CCN(c2ccc(C(=O)Nc3cccc4nccnc34)cc2)CC1` [(41), 4-(4-methylpiperazin-1-yl)-N-(quinoxalin-5-yl)benzamide] the value was 600 nM; for `CN1CCN(c2ccc(C(=O)Nc3ccc(F)c4cccnc34)cc2)CC1` [(42), N-(5-fluoroquinolin-8-yl)-4-(4-methylpiperazin-1-yl)benzamide], 3100 nM. With `Cc1cc(C(=O)Nc2cccc3cccnc23)ccc1OCCN(C)C` [(43), 4-(2-(dimethylamino)ethoxy)-3-methyl-N-(quinolin-8-yl)benzamide], the IC50 came out at 2100 nM. To `CN1CCN(c2ccc(C(=O)Nc3ccc(F)c4ncccc34)cc2)CC1` [(44), N-(8-fluoroquinolin-5-yl)-4-(4-methylpiperazin-1-yl)benzamide] belongs 3800 nM. On to `Cc1cc(N2CCN(C)CC2)ccc1C(=O)Nc1cccc2cnccc12` [(45), N-(isoquinolin-5-yl)-2-methyl-4-(4-methylpiperazin-1-yl)benzamide], for which the IC50 is 1000 nM. For `CN1CCN(c2ccc(C(=O)Nc3ccc(Cl)c4ncccc34)cc2)CC1` [(46), N-(8-chloroquinolin-5-yl)-4-(4-methylpiperazin-1-yl)benzamide], the IC50 was 1000 nM. For `Cc1cc(OCCN(C)C)ccc1C(=O)Nc1cccc2ncccc12` [(47), 4-(2-(dimethylamino)ethoxy)-2-methyl-N-(quinolin-5-yl)benzamide] the value was 1700 nM; for `CN(C)CCOc1ccc(C(=O)Nc2cccc3cnccc23)cc1C(F)(F)F` [(48), 4-(2-(dimethylamino)ethoxy)-N-(isoquinolin-5-yl)-3-(trifluoromethyl)benzamide], 1300 nM; for `CN(C)CCOc1ccc(C(=O)Nc2cccc3ncccc23)c(C(F)(F)F)c1` [(49), 4-(2-(dimethylamino)ethoxy)-N-(quinolin-5-yl)-2-(trifluoromethyl)benzamide], 2400 nM. For `COc1cc(C(=O)Nc2cccc3ncccc23)ccc1N1CCN(C)CC1` [(50), 3-methoxy-4-(4-methylpiperazin-1-yl)-N-(quinolin-5-yl)benzamide] the value was 2300 nM; for `CN1CCN(c2ccc(C(=O)Nc3ccc(Cl)c4cnccc34)cc2)CC1` [(51), N-(8-chloroisoquinolin-5-yl)-4-(4-methylpiperazin-1-yl)benzamide hydrochloride], 1300 nM. Consider `CN1CCN(c2ccc(C(=O)Nc3ccc(C(F)(F)F)c4ccncc34)cc2)CC1` [(52), 4-(4-methylpiperazin-1-yl)-N-[5-(trifluoromethyl)isoquinolin-8-yl]benzamide hydrochloride], for which the IC50 turned out to be 7500 nM.
